These results are taken from US20100016357A1, “Use of Beta-Aminoalcohols for the Treatment of Inflammatory Disorders and Pain” (SOSEI R & D LTD., priority 2006, published 2010).

The target of one test is T1, Beta2 (Cavia porcellus, UniProt Q8K4Z4).
T1 construct: from tissue; host or cells: guinea-pig trachea rings
Put plainly: Beta2 Agonism Functional Assay (inhibition of carbachol-stimulated tracheal muscle twitch). The settings on record: Guinea-pig trachea ring preparations contracted with carbachol. Format: cell-based. As to the method:
Guinea-pig trachea ring preparations were suspended in Kreb's solution containing indomethacin. […] Beta2 agonism for each test compound was determined by its dose-dependant inhibition of carbachol-stimulated tracheal muscle twitch.

The subject of test [1] is LPS-induced TNFα and IL1β cytokine production. Put plainly: LPS Mouse Assay (serum cytokines by ELISA). The class given is in vivo, Balb C ByJ mice. The settings on record: mice, i.p. or oral, 30 minutes before 1 mg/kg LPS i.p.; serum 2 hours after LPS. As to the method: 7 week old Balb C ByJ mice (24-28 g) were administered, either by i.p. (5 ml/kg) or oral (10 ml/kg) administration, with vehicle or test article. 30 minutes later these animals were challenged with an intraperitoneal injection of 1 mg/kg LPS. 2 hours after LPS challenge blood samples were collected under light isoflurane anaesthesia into normal tubes by retro-orbital puncture. Samples were allowed to clot at room temperature and then spun at 6000 g for 3 min at 4° C. Serum was stored at −20° C. until use. Serum TNFα and IL-10 levels were analysed in duplicate by ELISA technique.
(ELISA stands for enzyme-linked immunosorbent assay.)

T1 sequence (Q8K4Z4 whole entry): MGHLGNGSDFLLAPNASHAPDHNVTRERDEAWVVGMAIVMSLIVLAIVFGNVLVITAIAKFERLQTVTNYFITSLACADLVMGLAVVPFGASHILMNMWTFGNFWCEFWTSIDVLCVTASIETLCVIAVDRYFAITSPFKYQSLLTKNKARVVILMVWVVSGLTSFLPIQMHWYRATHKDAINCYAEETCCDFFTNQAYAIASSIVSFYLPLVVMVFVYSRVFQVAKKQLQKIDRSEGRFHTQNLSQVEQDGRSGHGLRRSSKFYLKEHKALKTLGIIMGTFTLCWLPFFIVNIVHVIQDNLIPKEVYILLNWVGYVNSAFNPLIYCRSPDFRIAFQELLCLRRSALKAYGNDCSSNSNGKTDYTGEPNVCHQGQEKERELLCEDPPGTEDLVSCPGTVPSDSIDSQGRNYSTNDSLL

In the case of `Nc1c(Cl)cc(C(O)C2CCCCN2)cc1Cl` (single isomer, unassigned) [Compound 10, Threo-(3,5-dichloro-4-amino-phenyl)-piperidin-2-yl-methanol], the “beta2 agonism (in words)” value at Beta2 is given as “poor, beta2 agonists”. Further, in test [1], the “effect on LPS-induced IL1β production” value is given as “had effects” and the “effect on LPS-induced TNFα production” value is “had effects”.
`Nc1c(Cl)cc(C(O)C2CCCCN2)cc1Cl` (single isomer, unassigned) [Compound 8, (Erythro)-(3,5-dichloro-4-amino-phenyl)-piperidin-2-yl-methanol]: the “beta2 agonism (in words)” value on Beta2 is given as “poor, beta2 agonists”. Besides, in test [1], the “effect on LPS-induced IL1β production” value is “had effects” and the “effect on LPS-induced TNFα production” value is “had effects”.
For the compound `Nc1c(Cl)cc(C(O)C2CCCCN2)cc1Cl` (single isomer, unassigned) [Compound 7, Erythro-(3,5-dichloro-4-amino-phenyl)-piperidin-2-yl-methanol], the “beta2 agonism (in words)” value at Beta2 is reported as “poor, beta2 agonists”. Also, the IC50 – broadly, the concentration needed to halve the response being measured – against Beta2 (inhibition of tracheal muscle twitch) is > 2000 nM. Moreover, in test [1], the “effect on LPS-induced IL1β production” value is “had effects” and the “effect on LPS-induced TNFα production” value is “had effects”.
For the compound `Nc1c(Cl)cc(C(O)C2CCCCN2)cc1Cl` (single isomer, unassigned) [Compound 11, Threo-(3,5-Dichloro-4-amino-phenyl)-piperidin-2-yl-methanol], the “beta2 agonism (in words)” value on Beta2 is “poor, beta2 agonists”. Also, in test [1], the “effect on LPS-induced IL1β production” value is on record as “had effects” and the “effect on LPS-induced TNFα production” value is reported as “had effects”.
